Measurements published in patent publication US5547980A, “Bicyclic sulfones, processes for their production and pharmaceutical agents containing them” (Boehringer Mannheim GmbH, priority 1991, dated 1996).
Where a name gives a salt, the structure may show the parent alone.

tested on: passively sensitized guinea-pig lung parenchymal strips; experiment: Inhibition of the antigen-induced constriction of passively sensitized guinea-pig lung parenchymal strips in vitro (organ bath); assay type: cell-based, guinea-pig (Pirbright-White); conditions: Cavia porcellus, 20 μg/ml, ovalbumin 0.1 μg/ml, 20 min/37° C. preincubation time (organ bath technique)
Description: Inhibition of the antigen-induced constriction of passively sensitized guinea-pig - lung parenchymal - strips in vitro (organ bath) For the in vitro examination of the compounds according to the invention, the inhibition of the antigen-induced constriction of passively sensitized guinea-pig lung parenchymal strips was measured as described in the following: Pirbright-White guinea-pigs were stunned by a blow on the neck and exsanguinated. The lungs were rinsed substantially free of blood in situ using Krebs buffer, pH 7.4. Subsequently the lung was excised, cut into strips (ca. 20×4×4 mm) and the strips were passively sensitized for one hour at room temperature with a 1:50 dilution of a homologous anti-ovalbumin antiserum and then washed once with Krebs buffer. The antiserum had previously been produced in guinea-pigs of the same strain according to […] (1) by repeated injection of ovalbumin (2×crystallized) with addition of complete Freund's adjuvant. The antiserum was stored undiluted at -18° C. until use. Subsequently the lung strips were suspended individually in 10 ml water baths on an isometric measuring recorder with an initial tension of 1.2 g. Afterwards the baths were filled with Krebs buffer and gassed continuously at 37° C. with O2 (95%) and CO2 (5%). The constrictions of the lung strips were recorded via an amplifier on a recorder. […] The inhibitory effects of the compounds according to the invention were expressed as percentage reduction of the constriction amplitudes of the "samples with test substance" in relation to the "untreated control constrictions". (1) […]. Johnstone Quantitative studies on anaphylaxis in guinea-pigs passively sensitized with homologous antibody. Inter. Arch. Allergy 41, 648-454 (1971) |% inhibition of the ovalbumin (0.1 μg/ml) induced |constriction of passively sensitized lung parenchymal strips |(guinea-pig) |20 min/37° C. preincubation time (organ bath technique)

Q: How did the inhibition at 20 µg/mL turn out when O=S1(=O)CC(N2CCCC2)C(N2CCCC2)c2ccc(Cl)cc21 (stereo not drawn) [3a), 7-chloro-3,4-bis-pyrrolidino-benzo[b]thian-1,1-dioxide] was run?
A: 25%

Q: For CCN(CC)CC1=Cc2ccc(Cl)cc2S1(=O)=O [Example 1, 6-chloro-2-(N,N-diethylamino-methyl)benzo[b]thiophene-1,1 dioxide], which inhibition at 20 µg/mL is on record?
A: 53%

Q: For CCCCNC1CS(=O)(=O)c2cc(Cl)ccc2C1NCCCC (stereo not drawn) [Example 5l), 7-chloro-3,4-bis-n-butyl-amino-benzo[b]thian-1,1-dioxide-dihydrochloride], which inhibition at 20 µg/mL is on record?
A: 25%

Q: How did the inhibition at 20 µg/mL turn out when CCN(CC)CC1=Cc2cc(Cl)c(Cl)cc2S1(=O)=O [Example 6, 5,6-dichloro-2-(N,N-diethylamino-methyl)benzo[b]-thiophene-1,1-dioxide-hydrochloride] was run?
A: 51%

Q: CCN(CC)CC1=Cc2ccc(Cl)c(Cl)c2S1(=O)=O [Example 7, 6,7-dichloro-2-(N,N-diethylamino-methyl)benzo[b]thiophene-1,1-dioxide-hydrochloride] was tested. Which inhibition at 20 µg/mL did it give?
A: 88%

same assay, conditions: Cavia porcellus, 200 μg/ml (footnote *), ovalbumin 0.1 μg/ml, 20 min/37° C. preincubation time (organ bath technique)

Q: For Cn1c(=O)c2[nH]cnc2n(C)c1=O [aminophylline, reference compound], which inhibition at 200 µg/mL is on record?
A: 26%
